Measured values: patent US6342335B1, “Polymethine compounds, method of producing same, and use thereof” (Yamamoto Chemicals, Inc., priority 1999, dated 2002)

Experiments:
[1] = Maximum absorption wavelength (λmax) in diacetone alcohol; assay type: physicochemical
Experimental: The maximum absorption wavelength (λmax) of the polymethine compound of the present invention in diacetone alcohol as well as those of known Compound A and Compound B were measured.

[2] = Solubility test in methyl ethyl ketone; assay type: physicochemical; conditions: 25° C. overnight, visual inspection for insoluble matter
Experimental: The solubility of the polymethine compound of the invention in methyl ethyl ketone as well as the solubilities of said known Compound A and Compound B were measured. Solubility measurements were carried out by the following method.
A 5 ml screw tube was charged with 200 mg of each polymethine compound and 1 ml of methyl ethyl ketone and agitated for dissolution with Mix-Rotor at 25° C. overnight. Each sample was visually inspected for insoluble matter. When no insoluble residue was found, the solubility was rated ≧20%. When an insoluble residue was found, the solubility was rated less than 20%.

Structure (SMILES): COCCN1/C(=C\C=C2/CCCC(/C=C/C3=[N+](CCOC)c4c(C)cc(OC)cc4C3(C)C)=C2Cl)C(C)(C)c2cc(OC)cc(C)c21 [Compound (55), 2-(2-{2-chloro-3-[(1,3-dihydro-3,3,7-trimethyl-5-methoxy-1-methoxyethyl-2H-indol-2-ylidene)ethylidene]-1-cyclohexen-1-yl}ethenyl)-3,3,7-trimethyl-5-methoxy-1-methoxyethylindolium=tetrafluoroborate]
- λmax [1]: 822 nm
- Solubility (g/ml) [2]: ≧20%

Structure (SMILES): COCCN1/C(=C\C=C2/CCCC(/C=C/C3=[N+](CCOC)c4ccccc4C3(C)C)=C2Cl)C(C)(C)c2ccccc21 [Compound A, reference compound]
- λmax [1]: 788 nm
